From patent US20260275279A1, “THYROCYTES AND USES THEREOF” (LifeNet Health, priority 2023, published 2026) come the findings set out here.

pIC50: −log10 of the molar value. Where two headings read alike, the source gives them in different places.

In one data set the test system is T3/T4 synthesis. The experiment in a line: Example 10 3D culture TDC screening, T3/T4 synthesis by ELISA and LC-MS/MS. The data set is classed as cell-based, human. The procedure:
For TDC Screening, these procedures were followed: • Prepare the Plate by adding 50 μL of 10 mg/ml of Matrigel, then polymerize the Matrigel at 37° C. for 1 hr. • Thaw the thyrocytes in 37° C. water bath. • Resuspend the cells in humanized medium (h7H). • Seed the cells at the optimal seeding density, 7,500 cells per 0.32 cm2. • Culture the cells in h7H medium. • Exchange the medium on Day 2, 5, 7, 9 and 12. • Start stimulating the cells with activators (e.g., bTSH, hTSH, M22, K!-18, ML-109) on Day 2 • Treatment with the activator is between Day 2-14 • Compound treatment starts on Day 9. • 8 doses: Concentrations (10^−10 to 10^−4M) • Serial dilutions were made in DMSO (Dilution factor 1:1000) • Compounds were added to the media • Day 12: Refresh media with the compound • Day 14: Collect the supernatant for the T4 analysis by ELISA and LC-MS/MS.

The subject of another data set is T4 synthesis. The experiment in a line: Reference chemical evaluation: inhibition of T4 synthesis in 3D microtissue cultures. The data set is classed as cell-based, human. Particulars: for effect on T4 levels: 0.0001 to 100 μM; for pIC50: 120-h treatment days 9-14, 1 mIU/mL bovine TSH, 7,500 cells/well, read-out: Average half-maximal inhibitory concentrations (IC50), T4 synthesis. As to the method:
3D cultures with cell seeding density of 7,500 cells/well were treated with 1 mIU/mL bovine TSH on days 2, 5, 7, 9, and 12. For each studied compound, cells were dosed on days 9 and 12 with concentrations ranging from 0.0001 to 100 μM across a log-fold titration. T4 levels were measured as described. All measured data were normalized to DMSO vehicle control.
Images are shown from representative donor lots. Values were normalized to the number of cells seeded per well. Significance was calculated in MiniTab (State College, PA) using either Student's t-test between 2 groups or One-way ANOVA with Tukey post hoc testing when comparing 3 groups or more to determine statistical significance with 95% confidence and *p<0.05 for statistical significance. GraphPad Prism v.9 was used to determine EC50 and EC90. Four-parameter nonlinear regression fit was used to determine the half-maximal inhibition concentration IC50 using GraphPad Prism v.9.
Established antagonists of thyroid hormone production were selected to determine the concentration-response profiles in 3D cultures for TDC screening purposes (FIG. 21).

In data set [1] the test system is 3D thyrocyte cell culture. Particulars: 1.0×10^−10 to 1.0×10^−4 M.
Procedure: After collecting media for T4 measurement, backing tape was put on the back of the 3D culture 96-well plate. 100 μL of a 1:1 mixture of CellTiter-Glo® Luminescent Cell Viability Assay (Promega, Madison, WI) and HTCM was added into each well of the 3D cell culture plate. The plate was covered and shaken for 2 minutes on an orbital plate shaker at 500 rpm followed by a 10 minute incubation in the dark without shaking. Luminescence reading was recorded using a CLARIOStar (BMG Labtech) microplate reader.

On to `CCCc1cc(=O)[nH]c(=S)[nH]1` [6-propyl-2-thiouracil], for which the T3/T4 synthesis entry with T3/T4 synthesis is recorded as “inhibited”. Also, the “effect on T4 levels” value with T4 synthesis is on record as “consistent concentration-dependent decrease in T4 levels”. Moreover, the pIC50 was 6.12 in the data set with T4 synthesis and 6.18 in the data set with T4 synthesis (Homo sapiens, 120 h). The “toxicity of inhibitor concentrations to the cells” value in data set [1] was “not toxic to the cells with the exception of 6-propyl-2-thiouracil for 2021159 at the highest dose”.
Take `Cn1cc[nH]c1=S` [methimazole, Methimazole]: the T3/T4 synthesis entry with T3/T4 synthesis is “inhibited”. In addition, the “effect on T4 levels” value with T4 synthesis was “consistent concentration-dependent decrease in T4 levels”.
